The text below walks through data of patent publication US8828993B2, “Psychotropic agents having glutamate NMDA activity” (Ramot At Tel-Aviv University Ltd., priority 2006, dated 2014).

Structures can show the parent of a compound that is named as a salt.

What all share (type): in vivo
Data set [1] deals with amphetamine-induced hyperactivity in mice. Briefly: Amphetamine-induced hyperactivity and stereotypic behavior. The conditions noted are these: ICR male mice. The source says: The amphetamine-induced hyperactivity and motility is one of the most popular animal models for schizophrenia (Pouzet B, et al., Effects of the 5-HT(7) receptor antagonist SB-258741 in animal models for schizophrenia. Pharmacol Biochem Behav April; 71(4):655-665, 2002 and Geyer, et al., Animal behavior models of the mechanisms underlying antipsychotic atypicalicity, Progress in Neuro-Psychopharmacol & Biological Psychiatry, 27, 1071-79, 2003). Amphetamines are known to augment dopaminergic and noradrenergic neurotransmission by inducing catecholamine release and preventing catecholamine reuptake
The experiment was conducted with ICR male mice placed in individual barrels. […] The locomotor activity, number of rearings and head movements was recorded every 15 minutes for 2 h.
As stated above, the amphetamine-induced hyperactivity and motility is one of the most popular animal models for schizophrenia. The experiment was conducted with ICR male mice placed in individual barrels. Compound 1 (20 mg/kg) was administered p.o to the mice 1 hr prior to i.p. administration of amphetamine (2. mg/kg). The hyper-active behavior expressed by the number of climbings and rearings and the stereotypic behavior expressed by the number of head movements was recorded every 15 minutes over a period of 1 h.
The effect of Compound 3 (12.5, 25 and 50 mg/kg, i.p.) on amphetamine-induced hyperactivity in Balb/c mice was also examined. Animals (6 per group) were injected with Compound 3 (12.5, 25 and 50 mg/kg) and 30 minutes later received amphetamine (2 mg/kg ip). After 30 minutes, animals were exposed to an open field test for a period of 20 minutes.

Data set [2] deals with mice. Briefly: Catalepsy bar test. The conditions noted are these: doses of up to 50 mg/kg i.p., scored 90 minutes later. How it is done:
Catalepsy in mice and rats serves as a behavioral model for the manifestation of the extrapyramidal adverse effects of neuroleptics (Worm, et al., Dopamine-like activities of an aminopyridazine derivative, CM 30366. A behavioral study, Naunyn-Schmeideberg's Arch Pharmacol, 334, 246-52, 1986).
Catalepsy in mice is evaluated using a bar test. The mice were placed in the middle of a steel rod situated between two platforms with their front paws resting on the bar. Animals were injected i.p. with a vehicle or Compound 1. Animals were scored 90 minutes later for the time it took each animal to reach the platform.

Data set [3] relates to mice. As to the kind of experiment: Forced swim test (FST). The source says:
This is one of the most widely used tools for screening antidepressant activity pre-clinically in acute treatment. The test was first described by Porsolt et al., (Behavioral despair in mice: a primary screening test for antidepressants. Arch. Int. Pharmacodyn. Ther. 229, pp. 327-336, 1977). The FST test is based on the observation that rats and mice develop an immobile posture when placed in an inescapable cylinder of water. This behavior is considered a behavioral despair as opposed to active form of coping with stressful conditions. The FST test is considered a good screening tool with good reliability and predictive validity.
Three parameters were defined in the evaluation of FST:
1. Immobility—defined in the traditional Porsolt test as when no additional activity is observed other than that required to keep the animal's head above water;
2. Swimming behavior—being the movement (usually horizontal) throughout the chamber that also includes crossing into another quadrant;
3. Climbing behavior—being defined as the upward-directed movements (vertical) of the forepaws along the side of the swim chamber.
The test in mice was conducted acutely (60-90 minutes post oral drug administration) and animals were dropped to the cylinder for 6 minutes and scoring was performed in the last 4 minutes after 2 minutes of adaptation.
Round glass cylinders, 18 cm in diameter and 20 cm deep were used. Water temperature was 24-28° C. Four parameters were taken: immobility, velocity, distance and strong mobility. The immobility in the animals was defined by activity lower than 10% movement of the center of gravity of the animal. Swimming was defined by the distance and the velocity of the animal, and climbing was related to strong mobility (movement of center of gravidance more than 30%).
Males Balb/c mice (Harlan Israel) were used. Animals were administered orally with Compound 1 (10 or 20 mg/kg) or with a vehicle.
Males ICR mice were used.

In the next data set the test system is rats. Briefly: Morris Water Maze, spatial cognition. How it is done: (§1) The Morris Water Maze is a well known test aimed to assess spatial cognitive tasks (Anger, et al., Animal test systems to study behavioral dysfunctions of neurodegenerative disorders, Neurotoxicology, 12, 403-13 (1991)). The maze consists of a circular pool measuring 1.80 m in diameter 60 cm in height. The pool was filled with water (21±1° C.) to a depth of 30 cm. A circular hidden escape platform (10 cm in diameter) was placed just below the water surface. The test room contained several permanent extra maze cues such as the rat housing rack, laboratory table, posters on the walls, etc.
(§2) The Morris Water Maze is a well known test aimed to assess spatial cognitive tasks. The maze consists of a circular pool measuring 1.80 m in diameter 60 cm in height. The pool was filled with water (21±1° C.) to a depth of 30 cm. A circular hidden escape platform (10 cm in diameter) was placed just below the water surface. The test room contained several permanent extra maze cues such as the rat housing rack, laboratory table, posters on the walls, etc.
(§3) In the experiment rats were given Compound 1 orally on day 1 and the first test begun 90 minute later, six trials per day, for 3 consecutive days, to find the hidden platform (acquisition phase). The escape latency, i.e., the time required by the rat to find and climb onto the platform, was recorded for up to 120 sec. Each rat was allowed to remain on the platform for 30 sec, after which it was removed to its home cage.
(§4) A video camera was placed above the center of the pool for tracking the rat, and a video tracking system (Noldus) with online digital output directly fed data into a computer. Data were analyzed using EthoVision automated tracking system software (Noldus).

Data set [4] relates to rats pretreated with MK-801. Briefly: Morris Water Maze in rats pretreated with MK-801. The settings on record: rats pretreated with MK-801 0.15 mg/kg i.p. How it is done:
as §1, §2, §3, §4
Compound 1 at both doses decreased the latency to the platform on day 3 of the experiment but not on days 1 and 2.
The relief of cognitive impairments was also shown in the use of Compound 6. […] Compound 6 at 10 mg/kg decreased the latency to the platform on days 2 and 3 of the experimentation.

The next data set concerns ICR male mice. Briefly: Subchronic toxicity. How it is done:
Subchronic toxicity was tested in ICR male mice. Animals (5 per group) received Compound 1 daily (10 and 20 mg/kg p.o). Animals were followed up for 7 days; weight, food intake and water intake were registered.

The mark [5] stands for this setting: male Balb/c mice, 10 mg/kg oral, vs vehicle.
The mark [6] stands for this setting: ICR male mice, 10 and 20 mg/kg p.o. daily, 7 days.

As for `COC(=O)C(N)CN1CCN(C2=Nc3ccccc3Nc3sc(C)cc32)CC1` (stereo not shown) [Compound 1, 2-amino-3-[4-(2-methyl-10H-thieno[2,3-b][1,5]benzodiazepin-4-yl)-piperazin-1-yl]-propionic acid, methyl ester hydrochloride salt], the “rearing behavior, compound alone compared to control animals” value in data set [1] (20 mg/kg p.o.) is given as “increased”. Also, in data set [1] (20 mg/kg p.o. 1 hr prior to amphetamine 2 mg/kg i.p.), the “increase in head movements induced by amphetamine (stereotypic behavior)” value is “did not attenuate”. Moreover, the “hyperactivity induced by amphetamine (number of climbings and rearings)” value in data set [1] (20 mg/kg p.o. 1 hr prior to amphetamine 2 mg/kg i.p., over 1 h) is on record as “effective in antagonizing”. The catalepsy result in the data set on mice [2] is recorded as “did not induce catalepsy”. Besides, in the data set with mice [3] (setting [5]), the “distance moved (swimming behavior)” value is recorded as “significantly increased” and the “strong mobility (climbing behavior)” value is reported as “significantly increased”. The immobility result in the data set on mice [3] (male Balb/c mice, 20 mg/kg oral, vs vehicle) is reported as “decreased”. Besides, in the data set on mice [3] (male ICR mice, 20 mg/kg oral), the distance moved entry is reported as “did not modify”, the immobility result is reported as “significantly decreased”, the “strong mobility (climbing)” value is given as “significantly decreased” and the velocity entry is on record as “did not modify”. Moreover, the “latency to platform (task execution)” value in the data set with rats (20 mg/kg po, second day) is reported as “improvement”. For the same compound, the “latency to platform (learning of the spatial task)” value in the data set on rats (rats, 20 mg/kg po on day 1, first day) is “faster learning”. Also, the latency to platform entry with rats (rats, 10 and 20 mg/kg po, third day, between all groups) is on record as “no difference”. Besides, the “latency to the platform” value in data set [4] (10 and 20 mg/kg p.o. on day 1, day 3) is given as “decreased”. Further, in the data set with ICR male mice (setting [6]), the animal general behavior result is listed as “no apparent difference”, the “body weight compared to control animals” value is listed as “no difference”, the “food intake compared to control animals” value was “no difference” and the tolerability result is on record as “well tolerated”. For the same compound, the “water intake compared to control animals” value in the data set with ICR male mice (setting [6]) is recorded as “no difference”. In addition, the toxic effect result in the data set with ICR male mice (up to 20 mg/kg given for 7 days) is on record as “did not cause toxic effect”.

As for `CNC(CN1CCN(C2=Nc3ccccc3Nc3sc(C)cc32)CC1)C(=O)OC` (stereo not shown) [Compound 6, 2-N-methylamino-3-[4-(2-methyl-10H-thieno[2,3-b][1.5]benzodiazepin-4-yl)-piperazin-1-yl]propionic acid, methyl ester trihydrochloride salt], the “latency to the platform” value in data set [4] (10 mg/kg p.o. once on day 1, days 2 and 3) is recorded as “decreased”.
